This passage reports DC50 and Dmax results from US20240261418A1, “SOS1 DEGRADING AGENT AND PREPARATION METHOD THEREFOR AND APPLICATION THEREOF” (SHANGHAI LEADINGTAC PHARMACEUTICAL CO. LTD., priority 2021, published 2024).

As a reminder, the DC50 is the concentration giving 50% degradation. One may read the Dmax as the largest share of the target that was removed. Read a high Dmax as a fuller loss of target.

A value given as a limit tells only on which side of the number the result lay.

The test concerns the target T1, SOS1 protein (Homo sapiens, UniProt Q07889).
T1 sequence (Q07889 1-1333): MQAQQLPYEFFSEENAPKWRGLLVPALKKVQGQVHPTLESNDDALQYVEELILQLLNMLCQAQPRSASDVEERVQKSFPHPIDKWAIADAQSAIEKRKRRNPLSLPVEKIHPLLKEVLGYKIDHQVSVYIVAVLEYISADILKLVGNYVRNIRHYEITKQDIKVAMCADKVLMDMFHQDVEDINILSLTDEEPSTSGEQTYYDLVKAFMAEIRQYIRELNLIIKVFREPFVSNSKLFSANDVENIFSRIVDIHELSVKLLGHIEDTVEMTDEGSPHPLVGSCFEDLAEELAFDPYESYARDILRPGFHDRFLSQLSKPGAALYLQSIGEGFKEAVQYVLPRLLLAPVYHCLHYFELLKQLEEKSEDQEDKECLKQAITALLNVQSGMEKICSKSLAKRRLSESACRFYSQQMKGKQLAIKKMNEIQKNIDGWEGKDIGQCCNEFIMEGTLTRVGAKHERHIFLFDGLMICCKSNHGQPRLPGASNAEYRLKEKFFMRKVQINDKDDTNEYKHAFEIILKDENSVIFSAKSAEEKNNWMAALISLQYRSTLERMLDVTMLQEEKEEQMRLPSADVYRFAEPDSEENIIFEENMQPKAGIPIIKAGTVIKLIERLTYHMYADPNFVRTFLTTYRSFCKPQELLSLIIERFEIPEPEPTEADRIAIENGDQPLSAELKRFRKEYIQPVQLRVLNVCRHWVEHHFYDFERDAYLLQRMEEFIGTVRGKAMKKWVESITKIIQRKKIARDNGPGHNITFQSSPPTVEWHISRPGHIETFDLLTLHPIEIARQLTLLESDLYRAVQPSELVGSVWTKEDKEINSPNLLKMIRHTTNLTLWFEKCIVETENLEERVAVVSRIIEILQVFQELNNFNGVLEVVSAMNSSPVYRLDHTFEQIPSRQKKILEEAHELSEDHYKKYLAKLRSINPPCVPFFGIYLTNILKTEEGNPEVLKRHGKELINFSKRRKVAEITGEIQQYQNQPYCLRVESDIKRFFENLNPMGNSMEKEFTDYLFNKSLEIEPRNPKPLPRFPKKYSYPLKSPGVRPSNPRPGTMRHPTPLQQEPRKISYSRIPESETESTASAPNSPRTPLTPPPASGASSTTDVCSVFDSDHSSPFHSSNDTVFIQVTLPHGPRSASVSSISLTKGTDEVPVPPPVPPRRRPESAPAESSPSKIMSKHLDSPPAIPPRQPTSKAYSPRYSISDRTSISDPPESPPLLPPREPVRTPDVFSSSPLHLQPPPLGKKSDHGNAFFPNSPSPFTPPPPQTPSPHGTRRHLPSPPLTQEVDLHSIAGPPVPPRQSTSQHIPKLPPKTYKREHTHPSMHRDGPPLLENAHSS
As to the kind of experiment: SOS1 degradation assay (Western blot) in DLD-1 cells. To be noted: DLD-1 (KRAS G13D), 24 h. It counts as cell-based. Also noted: host or cells: NCI-H358, A-427, SW-620, DLD-1 (human cancer cell lines). The method, then: Test Example 2: SOS1 Degradation Assay
The degradation of SOS1 by the compounds was investigated on KRAS G12C mutant human non-small cell lung cancer cells NCI-H358 (ATCC or Stem Cell Bank, Chinese Academy of Sciences), KRAS G12D mutant human lung cancer cells A-427 (ATCC), KRAS G12V mutant human colorectal adenocarcinoma cells SW-620 (ATCC), and KRAS G13D mutant human colorectal adenocarcinoma epithelial cells DLD-1 (ATCC). The specific procedures were as follows:
0.95 mL of cells were seeded into each well of a 24-well cell culture plate to achieve a cell density of 5×10^5 cells/well; the cell plate was incubated in an incubator at 37° C. with 5% CO2 overnight. Then 50 μL of the compound solution after dilution was added to each of the wells with the corresponding cells, so that the final concentration of the compound was in a range of 0.03-3000 nM. The final concentration of DMSO was 0.25%.
After dosing, the cell plate was incubated in an incubator at 37° C. with 5% CO2 for 24 h. The cell culture medium in the 24-well plate was removed, and the plate was washed twice with 1×PBS. 180 μL of RIPA (strong) lysis buffer (Beyotime, P0013B) supplemented with 1 mM phenylmethylsulfonyl fluoride, a protease inhibitor mixture (Beyotime, P1008), and a protease phosphatase inhibitor mixture (Beyotime, P1045) was added to lyse adherent NCI-H358 cells at the bottom of the cell culture plate. After the plate was left to stand on ice for 30 min, the protein lysate in each well was transferred to a 1.5 mL centrifuge tube and centrifuged at 15000 g for 20 min at 4° C. […] The concentration of total protein in the cell lysate supernatant was determined using the BCA Protein Quantification Kit (Tiangen, PA115-02). […]
The concentration of total protein in the cell lysate was determined by BCA. […] After the blocking, the PVDF membrane was incubated with an SOS1 primary antibody (Abcam, ab140621) at 4° C. overnight, washed with a TBST buffer (2.4 g of Tris, 8.8 g of NaCl, 1.5 mL of Tween 20, with pH adjusted to 7.4, with the volume brought to 1 L) for 30 min (10 min/time), incubated with a secondary antibody (Abcam, ab205718) at room temperature for 2 h, washed with a TBST buffer for 30 min (10 min/time), and finally incubated with Clarity Western ECL Substrate (BIO-RAD, 170-5061) for 5 min for luminescence and color development, and a chemiluminescence imaging system (Clinx, ChemiScope 6200 Touch) was used for color development and protein mapping. […] The gray correction value for each sample was calculated by the formula: gray correction value=(gray value of target protein/gray value of corresponding internal reference)×103. Then the degradation rate was calculated by comparing the gray correction value with the gray correction value of the control group. […]

Regarding `COc1cc2nc(C)nc(N[C@H](C)c3cc(-c4c(Cl)cccc4CN(C)C)cs3)c2cc1[C@H]1CC[C@H](C(=O)N2CCN(CC3CCC4(CC3)CCN(C(=O)c3ccc(Cl)c(N5CCC(=O)NC5=O)c3)CC4)CC2)CC1` [Example 1, 1-(2-chloro-5-(9-((4-((1R,4R)-4-(4-(((R)-1-(4-(2-chloro-6-((dimethylamino)methyl)phenyl)thien-2-yl)ethyl)amino)-7-methoxy-2-methylquinazolin-6-yl)cyclohexane-1-carbonyl)piperazin-1-yl)methyl)-3-azaspiro[5.5]undecane-3-carbonyl)phenyl)dihydropyrimidine-2,4(1H,3H)-dione], the DC50 is at most 50 nM and the Dmax is 80 to 100%.

Consider `COc1cc2nc(C)nc(N[C@H](C)c3cc(-c4c(Cl)cccc4CN(C)C)cs3)c2cc1[C@H]1CC[C@H](C(=O)N2CCC(CCOCC3CCN(C(=O)c4ccc(Cl)c(N5CCC(=O)NC5=O)c4)CC3)CC2)CC1` [Example 5, 1-(2-chloro-5-(4-((2-(1-((1R,4R)-4-(4-(((R)-1-(4-(2-chloro-6-((dimethylamino)methyl)phenyl)thien-2-yl)ethyl)amino)-7-methoxy-2-methylquinazolin-6-yl)cyclohexane-1-carbonyl)piperidin-4-yl)ethoxy)methyl)piperidine-1-carbonyl)phenyl)dihydropyrimidine-2,4(1H,3H)-dione], for which the DC50 was at most 50 nM and the maximal degradation (Dmax) was in the range of 80 to 100%.
